# Data as given in patent publication US12655127B2, “Fused ring compound as Wee-1 inhibitor” (WIGEN BIOMEDICINE TECHNOLOGY (SHANGHAI) CO., LTD., priority 2021, dated 2026).
# Biological target: recombinant protein Wee-1 (Homo sapiens, UniProt P30291)
# Experiment: Inhibition of enzymatic activity of recombinant protein Wee-1 (HTRF)
# Type: biochemical
# Protocol: The inhibitory effect of the compounds on the enzyme activity of recombinant protein Wee-1 was determined by HTRF. The procedures are as follows:
# After DMSO or serially diluted compounds (up to 200 nM, 1:5 serially diluted) and recombinant proteins were co-incubated in a kinase buffer at 37° C. for 30 min Fluorescein-PolyGAT and ATP were added, and then the reaction was started by the addition of a substrate. After incubation at room temperature for 90 min, an antibody and a detection solution were added, and after further incubation at room temperature for 60 min, fluorescence values were detected (excitation wavelength: 340 nm, emission wavelengths: 495 and 520 nm). The 520 nm/495 nm fluorescence intensity ratio value was calculated, and compared with that of the DMSO group, and then the inhibition percentages and IC50 values of the compounds were calculated.
# Sequence of recombinant protein Wee-1 (P30291 whole entry): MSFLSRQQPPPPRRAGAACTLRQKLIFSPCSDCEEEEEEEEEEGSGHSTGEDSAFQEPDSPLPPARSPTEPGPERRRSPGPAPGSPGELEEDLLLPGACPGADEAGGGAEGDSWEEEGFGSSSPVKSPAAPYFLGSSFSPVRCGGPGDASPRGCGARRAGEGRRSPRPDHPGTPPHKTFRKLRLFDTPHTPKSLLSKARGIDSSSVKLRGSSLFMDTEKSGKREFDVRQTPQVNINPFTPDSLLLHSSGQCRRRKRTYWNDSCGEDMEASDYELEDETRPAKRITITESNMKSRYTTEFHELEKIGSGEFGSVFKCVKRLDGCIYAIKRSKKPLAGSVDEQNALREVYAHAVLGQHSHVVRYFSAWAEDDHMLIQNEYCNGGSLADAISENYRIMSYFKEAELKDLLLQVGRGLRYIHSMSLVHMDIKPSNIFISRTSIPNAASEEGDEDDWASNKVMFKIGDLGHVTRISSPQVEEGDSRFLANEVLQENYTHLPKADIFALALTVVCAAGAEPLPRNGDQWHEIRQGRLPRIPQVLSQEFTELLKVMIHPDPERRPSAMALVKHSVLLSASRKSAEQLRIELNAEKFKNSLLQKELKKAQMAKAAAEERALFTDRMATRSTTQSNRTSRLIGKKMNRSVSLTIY
row,IC50,SMILES
1,≤ 10 nM,CN1Cc2c3c(cc(Nc4ncc(C#N)c(Nc5cccc(N=S(C)(C)=O)n5)n4)c2C2CC2)CCCC3C1 (stereo not drawn) [Compound 42]
2,10 to 50 nM,CN1Cc2cc(Nc3ncc(C#N)c(Nc4cccc(N=S(C)(C)=O)n4)n3)cc3c2[C@](C)(CC3)C1 [Compound 54]
3,≤ 10 nM,CN1Cc2cc(Nc3ncc(C#N)c(Nc4cccc(N=S(C)(C)=O)n4)n3)cc3c2C(C)(CCCC3)C1 (stereo not drawn) [Compound 59]
4,≤ 10 nM,CN1Cc2cc(Nc3ncc(C#N)c(Nc4cccc(N=S(C)(C)=O)n4)n3)cc3c2C(CCCS3)C1 (stereo not drawn) [Compound 75]
5,≤ 10 nM,CN1Cc2cc(Nc3ncc(C#N)c(Nc4cccc(N=S(C)(C)=O)n4)n3)cc3c2C1CCCC3 (stereo not drawn) [Compound 88]
6,≤ 10 nM,Cc1c(Nc2ncc(C#N)c(Nc3cccc(N=S(C)(C)=O)n3)n2)cc2c3c1CN(C)CC3CCC2 (stereo not drawn) [Compound 41]
7,≤ 10 nM,CN1Cc2cc(Nc3ncc(C#N)c(Nc4nc(N=S(C)(C)=O)cc5[nH]ccc45)n3)cc3c2C(CCC3)C1 (stereo not drawn) [Compound 118]
8,≤ 10 nM,CN1Cc2cc(Nc3ncc(C#N)c(Nc4cccc(N=S(C)(C)=O)n4)n3)cc3c2C(COC3)C1 (stereo not drawn) [Compound 66]
9,10 to 50 nM,CN1Cc2cc(Nc3ncc(C#N)c(Nc4cccc(N=S(C)(C)=O)n4)n3)cc3c2[C@@H](CC3)C1 [Compound 52]
10,≤ 10 nM,CCN1Cc2cc(Nc3ncc(C#N)c(Nc4cccc(N=S(C)(C)=O)n4)n3)cc3c2[C@H](CCC3)C1 [Compound 8]
11,≤ 10 nM,CN1Cc2cc(Nc3ncc(C#N)c(Nc4ccnc(N=S(C)(C)=O)c4)n3)cc3c2C(CCC3)C1 (stereo not drawn) [Compound 102]
12,≤ 10 nM,CN1Cc2cc(Nc3ncc(C#N)c(Nc4cccc(N=S(C)(C)=O)n4)n3)cc3c2[C@H](CCC3)C1(C)C [Compound 24]
13,≤ 10 nM,COc1ccc(Nc2nc(Nc3cc4c5c(c3)CN(C)CCC5CCC4)ncc2C#N)nc1N=S(C)(C)=O (stereo not drawn) [Compound 123]
14,≤ 10 nM,CN1Cc2cc(Nc3ncc(C#N)c(Nc4cccc(N=S(C)(C)=O)n4)n3)c(F)c3c2C(CCC3)C1 (stereo not drawn) [Compound 48]
15,≤ 10 nM,CN1Cc2cc(Nc3ncc(C#N)c(Nc4cccc(N=S(C)(C)=O)n4)n3)cc3c2C(C1)NCC3 (stereo not drawn) [Compound 130]
16,≤ 10 nM,CN1Cc2cc(Nc3ncc(C#N)c(Nc4cccc(N=S(C)(C)=O)n4)n3)cc3c2C(C1)C(C)(C)CC3 (stereo not drawn) [Compound 30]
17,≤ 10 nM,[2H]C([2H])([2H])N1Cc2cc(Nc3ncc(C#N)c(Nc4cccc(N=S(C)(C)=O)n4)n3)cc3c2C(CCC3)C1 (stereo not drawn) [Compound 134]
18,≤ 10 nM,"CN1Cc2cc(Nc3ncc(C#N)c(Nc4cccc(P(C)(C)=O)n4)n3)cc3c2[C@H](CCC3)C1 (single isomer, unassigned) [Compound 138]"
19,≤ 10 nM,CN1Cc2cc(Nc3ncc(C#N)c(Nc4cccc(N=S(C)(C)=O)n4)n3)cc3c2C2(CC2CC3)C1 (stereo not drawn) [Compound 39]
20,≤ 10 nM,CN1Cc2cc(Nc3ncc(C#N)c(Nc4cccc(N=S(C)(C)=O)n4)n3)cc3c2C(CCOC3)C1 (stereo not drawn) [Compound 76]
21,≤ 10 nM,CN1Cc2cc(Nc3ncc(C#N)c(Nc4cccc(N=S(C)(C)=O)n4)n3)c(C3CC3)c3c2C(CCC3)C1 (stereo not drawn) [Compound 47]
22,≤ 10 nM,CN1Cc2cc(Nc3ncc(C#N)c(Nc4cccc(N=S(C)(C)=O)n4)n3)cc3c2C(C1)N(C)CC3 (stereo not drawn) [Compound 129]

row,IC50,SMILES
1,≤ 10 nM,CN1Cc2cc(Nc3ncc(C#N)c(Nc4cccc(N=S(C)(C)=O)n4)n3)cc3c2[C@@H](CCC3)C1(C)C [Compound 25]
2,≤ 10 nM,CS(C)(=O)=Nc1cccc(Nc2nc(Nc3cc4c5c(c3)CN(CCO)CC5CCC4)ncc2C#N)n1 (stereo not drawn) [Compound 16]
3,≤ 10 nM,CN1Cc2cc(Nc3ncc(C#N)c(Nc4cccc(N=S(C)(C)=O)n4)n3)cc3c2[C@@H](CCCC3)C1 [Compound 58]
4,≤ 10 nM,CN1Cc2cc(Nc3ncc(P(C)(C)=O)c(Nc4cccc(N=S(C)(C)=O)n4)n3)cc3c2C(CCC3)C1 (stereo not drawn) [Compound 96]
5,≤ 10 nM,CN1Cc2cc(Nc3ncc(C#N)c(Nc4cccc(N=S(C)(C)=O)n4)n3)cc3c2C(CCSC3)C1 (stereo not drawn) [Compound 77]
6,≤ 10 nM,CN1Cc2cc(Nc3ncc(C#N)c(Nc4cccc(N=S(C)(C)=O)n4)n3)cc3c2C(CC=C3)C1 (stereo not drawn) [Compound 35]
7,≤ 10 nM,CN1Cc2cc(Nc3ncc(S(C)(=O)=O)c(Nc4cccc(N=S(C)(C)=O)n4)n3)cc3c2C(CCC3)C1 (stereo not drawn) [Compound 97]
8,≤ 10 nM,CN1Cc2cc(Nc3ncc(C#N)c(Nc4cccc(N=S(C)(C)=O)n4)n3)cc3c2C(C1)OCC3 (stereo not drawn) [Compound 68]
9,≤ 10 nM,CN1Cc2cc(Nc3ncc(C#N)c(Nc4cc5c(c(N=S(C)(C)=O)n4)CCC5)n3)cc3c2C(CCC3)C1 (stereo not drawn) [Compound 120]
10,≤ 10 nM,CN1Cc2cc(Nc3ncc(Br)c(Nc4cccc(N=S(C)(C)=O)n4)n3)cc3c2C(CCC3)C1 (stereo not drawn) [Compound 100]
11,≤ 10 nM,COc1c(Nc2ncc(C#N)c(Nc3cccc(N=S(C)(C)=O)n3)n2)cc2c3c1CN(C)CC3CCC2 (stereo not drawn) [Compound 44]
12,≤ 10 nM,CN1Cc2cc(Nc3ncc(C#N)c(-c4c[nH]c5c(N=S(C)(C)=O)cccc45)n3)cc3c2C(CCC3)C1 (stereo not drawn) [Compound 115]
13,≤ 10 nM,CN1Cc2cc(Nc3ncc(C#N)c(-n4ccc5c(N=S(C)(C)=O)cccc54)n3)cc3c2C(CCC3)C1 (stereo not drawn) [Compound 113]
14,≤ 10 nM,CN1Cc2cc(Nc3ncc(C#N)c(-c4cn(C)c5c(N=S(C)(C)=O)cccc45)n3)cc3c2C(CCC3)C1 (stereo not drawn) [Compound 116]
15,≤ 10 nM,CN1Cc2cc(Nc3ncc(C#N)c(Nc4cccc(N=S(C)(C)=O)n4)n3)cc3c2C(CC(O)C3)C1 (stereo not drawn) [Compound 291]
16,≤ 10 nM,CN1Cc2cc(Nc3ncc(C#N)c(Nc4cccc(N=S(C)(C)=O)n4)n3)cc3c2C(C1)C1(CC3)CC1 (stereo not drawn) [Compound 29]
17,≤ 10 nM,CN1Cc2cc(Nc3ncc(C#N)c(Nc4cccc(N=S(C)(C)=O)n4)n3)cc3c2C(CCC32CC2)C1 (stereo not drawn) [Compound 32]
18,≤ 10 nM,CN1Cc2c(F)c(Nc3ncc(C#N)c(Nc4cccc(N=S(C)(C)=O)n4)n3)cc3c2C(CCC3)C1 (stereo not drawn) [Compound 43]
19,≤ 10 nM,CN1Cc2cc(Nc3ncc(C#N)c(Nc4cc(N=S(C)(C)=O)ccn4)n3)cc3c2C(CCC3)C1 (stereo not drawn) [Compound 104]
20,≤ 10 nM,CN1Cc2cc(Nc3ncc(C#N)c(Nc4cccc(N=S(C)(C)=O)n4)n3)nc3c2C(CCC3)C1 (stereo not drawn) [Compound 45]
21,≤ 10 nM,CN1C[C@H]2CCCc3cc(Nc4ncc(C#N)c(Nc5cccc(N=S(C)(C)=O)n5)n4)cc(c32)C1(C)C [Compound 21]
22,≤ 10 nM,[2H]C1([2H])c2cc(Nc3ncc(C#N)c(Nc4cccc(N=S(C)(C)=O)n4)n3)cc3c2C(CCC3)CN1C (stereo not drawn) [Compound 280]

row,IC50,SMILES
1,≤ 10 nM,[2H]C1([2H])C2CCCc3cc(Nc4ncc(C#N)c(Nc5cccc(N=S(C)(C)=O)n5)n4)cc(c32)CN1C (stereo not drawn) [Compound 279]
2,≤ 10 nM,CN1Cc2cc(Nc3ncc(C#N)c(Nc4cccc(N=S(C)(C)=O)n4)n3)cc3c2C(COCC3)C1 (stereo not drawn) [Compound 78]
3,≤ 10 nM,CN1Cc2cc(Nc3ncc(C#N)c(Nc4cccc(N=S(C)(C)=O)n4)n3)cc3c2C(CO3)C1 (stereo not drawn) [Compound 70]
4,≤ 10 nM,CCN1Cc2cc(Nc3ncc(C#N)c(Nc4cccc(N=S(C)(C)=O)n4)n3)cc3c2[C@@H](CCC3)C1 [Compound 9]
5,≤ 10 nM,CS(C)(=O)=Nc1cccc(Nc2nc(Nc3cc4c5c(c3)CN(C3CC3)C[C@H]5CCC4)ncc2C#N)n1 [Compound 14]
6,≤ 10 nM,CN1Cc2cc(Nc3ncc(C#N)c(Nc4cccc(N=S(C)(C)=O)n4)n3)cc3c2C(C1)CC1(CC1)C3 (stereo not drawn) [Compound 26]
7,≤ 10 nM,CN1Cc2cc(Nc3ncc(C#N)c(Nc4cccc(N=S(C)(C)=O)n4)n3)cc3c2C(CSCC3)C1 (stereo not drawn) [Compound 79]
8,≤ 10 nM,CCS(=O)(CC)=Nc1cccc(Nc2nc(Nc3cc4c5c(c3)CN(C)CC5CCC4)ncc2C#N)n1 (stereo not drawn) [Compound 91]
9,≤ 10 nM,CN1Cc2cc(Nc3ncc(C#N)c(Nc4cccc(N=S(C)(C)=O)n4)n3)cc3c2[C@@](C)(CCCC3)C1 [Compound 61]
10,≤ 10 nM,CN1Cc2cc(Nc3ncc(-c4ccoc4)c(Nc4cccc(N=S(C)(C)=O)n4)n3)cc3c2C(CCC3)C1 (stereo not drawn) [Compound 99]
11,≤ 10 nM,CC(=O)N1Cc2cc(Nc3ncc(C#N)c(Nc4cccc(N=S(C)(C)=O)n4)n3)cc3c2C(CN(C)C3)C1 (stereo not drawn) [Compound 128]
12,≤ 10 nM,CN1Cc2cc(Nc3ncc(C#N)c(Nc4nc(N=S(C)(C)=O)cc5c4CCN5)n3)cc3c2C(CCC3)C1 (stereo not drawn) [Compound 119]
13,≤ 10 nM,"CN1Cc2cc(Nc3ncc(C#N)c(Nc4cccc(P(C)(C)=O)n4)n3)cc3c2[C@@H](CCC3)C1 (single isomer, unassigned) [Compound 139]"
14,≤ 10 nM,CN1Cc2cc(Nc3ncc(C#N)c(Nc4cccc(N=S(C)(C)=O)n4)n3)cc3c2C(C1)OCCC3 (stereo not drawn) [Compound 80]
15,≤ 10 nM,CN1Cc2cc(Nc3ncc(C#N)c(Nc4cccc(N=S(C)(C)=O)n4)n3)cc3c2C(CCCCC3)C1 (stereo not drawn) [Compound 62]
16,≤ 10 nM,CN1Cc2cc(Nc3ncc(C#N)c(Nc4cccc(N=S(C)(C)=O)n4)n3)cc3c2C(C1)SCC3 (stereo not drawn) [Compound 69]
17,≤ 10 nM,CN1Cc2cc(Nc3ncc(C#N)c(Nc4cccc(N=S(C)(C)=O)c4)n3)cc3c2C(CCC3)C1 (stereo not drawn) [Compound 101]
18,≤ 10 nM,CN1Cc2nc(Nc3ncc(C#N)c(Nc4cccc(N=S(C)(C)=O)n4)n3)cc3c2C(CCC3)C1 (stereo not drawn) [Compound 40]
19,≤ 10 nM,CN1CC2CCCc3cc(Nc4ncc(C#N)c(Nc5cccc(N=S(C)(C)=O)n5)n4)cc(c32)C12CC2 (stereo not drawn) [Compound 19]
20,≤ 10 nM,CN1C[C@@H]2CCCc3cc(Nc4ncc(C#N)c(Nc5cccc(N=S(C)(C)=O)n5)n4)cc(c32)C1(C)C [Compound 22]
21,≤ 10 nM,CN1Cc2cc(Nc3ncc(C#N)c(Nc4cccc(N=S(C)(C)=O)n4)n3)cc3c2C(CCC3N)C1 (stereo not drawn) [Compound 290]
22,≤ 10 nM,CN1Cc2cc(Nc3ncc(C#N)c(Nc4cccc(N=S(C)(C)=O)n4)n3)cc3c2C(CNC3)C1 (stereo not drawn) [Compound 127]
